Values quoted from earlier work in patent publication US10772813B2, “Compositions and methods of administering a colchicine based topical composition for the prevention of radiation fibrosis” (Colradel, LLC, priority 2016, dated 2020).
“Also recorded” adds a separate entry of the source.

Columns and labels:
fibroblasts = details: low doses
[1] = topical vs high oral doses
[2] = test system: radiation-induced fibrosis; details: single agent, oral

Q: For `COc1cc2c(c(OC)c1OC)-c1ccc(OC)c(=O)cc1[C@@H](NC(C)=O)CC2` [colchicine], which “concentration in the skin / dermis” value (0.2% colchicine ointment compared with 0.5%) is on record?
A: same concentration in the dermis 0.5%; also recorded: the same concentration in the skin as 0.5%

Q: And the side effects (0.2% formulation (0.2 gram in 100 ml), transdermal ointment)?
A: no side effects

Q: And the transdermal absorption (ointment, treatment of gout)?
A: well-absorbed transdermally

Q: And the “inhibition of fibroblast migration” value (fibroblasts)?
A: 93%

Q: And the side effects (fibroblasts)?
A: without any side effects

Q: For tocopherol [vitamin E], which “concentration achievable by topical administration versus high doses orally” value [1] is on record?
A: 11 times

Q: With `CC(=O)CCCCn1c(=O)c2c(ncn2C)n(C)c1=O` [pentoxifylline, 3,7-dimethyl-1-5-(5-oxohexyl)-xanthine] as the compound, how does the “improvement in late radiation-induced fibrosis” value [2] read?
A: significant improvement
